Results from US8674113B2, “Compounds” (Boehringer Ingelheim International GmbH, priority 2010, dated 2014).
Like-named read-outs stand apart in the source and are kept apart here.

Columns and labels:
[1] = target: recombinant human mPGES-1 (Homo sapiens (Human), UniProt O14684); assay: mPGES-1 enzyme assay (HTRF detection of PGE2); format: biochemical
Procedure: Microsomes from Rosetta E. coli bacteria expressing recombinant human mPGES-1 can be derived as described below:
Inoculate 5 ml LB with Ampicilin (50 μg/ml) and Chloramphenicol (34 μg/ml) with bacteria from freeze culture. Incubate 8 h at 37° C. with 200 rpm. Thereafter, inoculate 500-1000 ml LB containing Amp and Chloro with the 5 ml on culture and grow to OD640 of 0.8-1.0. Chill the culture to +4° C. before induction. Induce the culture with IPTG at a final concentration of 400 μM. Express the protein at room temp 18-23° C. with 200 rpm shaking over night.
The following steps can be performed on the following day: • 1. Spin down the cells in 250 ml centrifuge flasks for 15 min at 7000 rpm (Beckmann Coulte Avanti J-E centrifuge) • 2. Dissolve the pellet from 250 ml culture in 12.5 ml homogenization buffer • 3. (15 mM Tris-HCL pH8, 1 mM EDTA pH8, […], 2.5 mM GSH, 1 Tablet Protease inhibitor per 50 ml buffer) • 4. Disintegrate the cells by sonication, 5×10 seconds at 48% amplitude of a 750 W sonifier • 5. Add 2.5 ml MgCl2 (100 mM) and DNase 12.5 μl (0.8 mg/ml) and incubate on ice for 30 min • 6. Spin down the bacteria debris and save the supernatant, 7000 rpm for 15 min • 7. Isolate the protein containing membranes in the supernatant by ultracentrifugation 120000×g for 2 hour at 4° C. (Sorvall T880 rotor). • 8. Discard the supernatant and dissolve the pellet in 20 mM Potassium phosphate buffer pH7.4 (KH2PO4 and K2HPO4) buffer by sonication (5×10 s, 30% of a 50 W sonifier) and aliquot the enzyme and store aliquots at −80° C.
Before each experiment is performed an aliquot of the enzyme is thawed and it can then be dissolved in 0.1 M Potassium phosphate buffer pH7.4 (KH2PO4 and K2HPO4) buffer containing 2.5 mM GSH.
The aim of this assay is to determine the affinity of a test compound for the mPGES-1 enzyme.
47 μl of recombinant human mPGES-1 (˜0.5 μg protein/well) containing microsomal suspension in a buffer containing GSH, (2.5 mmol/L L-Glutathione reduced, dissolved in 0.1 mol/L Phosphat Buffer pH 7.4) is dispensed in a 384-well plate and thereafter 1 μl of the test compound(s) is/are added and incubated for 25 minutes at room temperature. The enzyme reaction is started by the addition of 2 ul PGH2 (final conc 2 μM) disolved in water-free Diglyme. After 60 seconds the reaction is terminated by addition of a stop solution containing FeCl2 (10 μL 0.074 mol/l FeCl2). The samples are diluted between 1:25 in PBS (Phosphate Buffered Saline). 10 μl of the diluted samples are transferred to 384-well low volume plate. In order to quantify the amount of PGE2 that has been formed, a homogenous time resolved fluorescent (HTRF) detecting of PGE2 has been performed using a commercially available kit from Cisbio according to the manufactures recommendation. This HTRF-based assay has been described in detail (see: Goedken et al., J Biomol Screen, 2008, 13(7), 619-625). Briefly, the diluted samples are mixed with 5 μl PGE2-d2 conjugate and 5 μl anti-PGE2 cryptate conjugate. After an incubation period of the plates over night, the fluorescence is measured by the use of an appropriate microplate reader.
The fluorescence of Europium cryptate (maxex=307 nm, maxem=620 nm) and d2-PGE2 (maxex=620 nm, maxem=665 nm) are measured.
The extent of the specific HTRF is measured as a ratio of the emission intensity at 665 nm vs. that at 620 nm at an excitation puts of 320 nm. The quantification plate contains also wells with different concentrations of PGE2 as calibration curve for the calculation of the PGE2 concentrations from the HTRF ratio values.
From all mPGES enzyme assay the background is subtracted and the IC50 is calculated over a nonlinear regression with conventional software.

mPGES-1 in A549 cells = mPGES-1 in A549 cells (Homo sapiens (Human), UniProt O14684); assay: A549 cell-based assay (PGE2 formation, 50% human serum)
Procedure, shortened: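 PGE2 release, read by HTRF and set to 100% for vehicle, gave IC50s from 6-8 point titrations. Human A549 cells were exposed to compound for 20-24 h in medium with 50% human serum, with IL-1β (5 ng/ml) and arachidonic acid (10 nM) as stimulus.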

[2] = recombinant human mPGES-1 microsomes, PGH2 2 μM, 60 seconds, read-out: mPGES-1 inhibitory effect IC50 in the enzyme assay
[3] = IL-1β 5 ng/ml, 10 nM arachidonic acid, 20-24 h, read-out: mPGES-1 inhibitory effect IC50 in the cell assay

Sequence of recombinant human mPGES-1 (O14684 whole entry): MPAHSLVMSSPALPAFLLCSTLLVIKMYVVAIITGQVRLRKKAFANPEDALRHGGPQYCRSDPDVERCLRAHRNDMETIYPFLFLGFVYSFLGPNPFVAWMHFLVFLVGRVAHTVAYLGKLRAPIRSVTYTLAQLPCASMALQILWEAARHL
Sequence of mPGES-1 in A549 cells (O14684 whole entry): as above

| SMILES | IC50 [1, 2] [nM] | IC50 (mPGES-1 in A549 cells; [3]) [nM] | IC50 ([1]; Table C comparison of selected benzimidazoles, read-out: Enzym IC50) [nM] | IC50 (mPGES-1 in A549 cells; Table C comparison of selected benzimidazoles, read-out: Cell IC50) [nM] |
| --- | --- | --- | --- | --- |
| Cn1c(Nc2c(Cl)ccc(CNC(=O)C(C)(C)C)c2Cl)nc2cc(C(=O)NCC(F)(F)F)c(N3CCC(C(C)(C)O)CC3)cc21 [Example 29, N-(2,2,2-Trifluoroethyl)-2-{2,6-dichloro-3-[(2,2-dimethyl-propionylamino)-methyl]-phenylamino}-6-[4-(1-hydroxy-1-methyl-ethyl)-piperidinyl]-1-methyl-1H-benzimidazole-5-carboxylic acid amide] | 2 | 3 |  |  |
| Cc1nc2c(s1)CN(c1cc3c(cc1C(=O)NCC(F)(F)F)nc(Nc1c(Cl)ccc(CNC(=O)C(C)(C)C)c1Cl)n3C)C2 [Example 33] | 3 | 8 |  |  |
| Cn1c(Nc2c(Cl)ccc(CNC(=O)C(C)(C)C)c2Cl)nc2cc(C(=O)Nc3ccc(OC(F)(F)F)cc3)c(N3CCC(F)(F)C3)cc21 [Example 35, N-(4-Trifluoromethoxy-phenyl)-2-{2,6-dichloro-3-[(2,2-dimethyl-propionylamino)-methyl]-phenylamino}-6-[3,3-difluoro-pyrrolidinyl]-1-methyl-1H-benzimidazole-5-carboxylic acid amide] | 2 | 1 |  |  |
| CC(NC(=O)c1cc2nc(Nc3c(Cl)ccc(CNC(=O)C(C)(C)C)c3Cl)n(C)c2cc1N1CCC(F)(F)C1)c1cccs1 (centres unmarked) [Example 36] | 5 | 6.5 |  |  |
| Cn1c(Nc2c(Cl)ccc(CNC(=O)C(C)(C)C)c2Cl)nc2cc(C(=O)Nc3cccc(OC(F)(F)F)c3)c(N3CCC(F)(F)C3)cc21 [Example 40] | 2 | < 1 |  |  |
| Cn1c(Nc2c(Cl)ccc(CNC(=O)C(C)(C)C)c2Cl)nc2cc(C(=O)Nc3ccc(F)c(Cl)c3)c(N3CCC(F)(F)C3)cc21 [Example 42] | 2 | 2 |  |  |
| Cn1c(Nc2c(Cl)ccc(CNC(=O)C(C)(C)C)c2Cl)nc2cc(C(=O)NCC3CC3)c(N3CCC(F)(F)C3)cc21 [Example 45] | 5 | 7 | 5 | 7 |
| Cn1c(Nc2c(Cl)ccc(CNC(=O)C(C)(C)C)c2Cl)nc2cc(C(=O)NCCCC(F)(F)F)c(N3CCC(F)(F)C3)cc21 [Example 46] | 3 | 7 |  |  |
| Cn1c(Nc2c(Cl)ccc(CNC(=O)C(C)(C)C)c2Cl)nc2cc(C(=O)Nc3cccc(C(F)(F)F)n3)c(N3CCC(F)(F)C3)cc21 [Example 47] | 2 | 1 |  |  |
| CC(C)C(NC(=O)c1cc2nc(Nc3c(Cl)ccc(CNC(=O)C(C)(C)C)c3Cl)n(C)c2cc1N1CCC(F)(F)C1)C(F)(F)F (centres unmarked) [Example 49] | 4 | 4 |  |  |
| Cn1c(Nc2c(Cl)ccc(CNC(=O)C(C)(C)C)c2Cl)nc2cc(C(=O)NCC(F)(F)C(F)(F)F)c(N3CCC(F)(F)C3)cc21 [Example 50] | 3 | 2 |  |  |
| Cn1c(Nc2c(Cl)ccc(CNC(=O)C(C)(C)C)c2Cl)nc2cc(C(=O)Nc3ccc(F)c(Cl)c3)c(N3CCC(C(F)(F)F)CC3)cc21 [Example 54, N-(3-Chloro-4-fluoro-phenyl)-2-{2,6-dichloro-3-[(2,2-dimethyl-propionylamino)-methyl]-phenylamino}-6-[4-trifluoromethyl-piperidinyl]-1-methyl-1H-benzimidazole-5-carboxylic acid amide] | 2 | 1.4 |  |  |
| Cn1c(Nc2c(Cl)ccc(CNC(=O)C(C)(C)C)c2Cl)nc2cc(C(=O)Nc3cccc(C(F)(F)F)n3)c(N3CCC(C(F)(F)F)CC3)cc21 [Example 55] | 2 | 5 |  |  |
| Cn1c(Nc2c(Cl)ccc(CNC(=O)C(C)(C)C)c2Cl)nc2cc(C(=O)Nc3ccc(OC(F)(F)F)cc3)c(N3CCC(C(F)(F)F)CC3)cc21 [Example 57] | 1 | 1 |  |  |

Further molecules by falling IC50 [1, 2], results first:

| IC50 [1, 2] [nM] | IC50 (mPGES-1 in A549 cells; [3]) [nM] | IC50 ([1]; Table C comparison of selected benzimidazoles, read-out: Enzym IC50) [nM] | IC50 (mPGES-1 in A549 cells; Table C comparison of selected benzimidazoles, read-out: Cell IC50) [nM] | SMILES |
| --- | --- | --- | --- | --- |
| 5 | 144 |  |  | Cn1c(Nc2c(Cl)ccc(CNC(=O)C(C)(C)C)c2Cl)nc2cc(C(=O)NCC(F)(F)F)c(Nc3ccc(F)c(Cl)c3)cc21 [Example 30] |
| 5 | 3 |  |  | Cn1c(Nc2c(Cl)ccc(CNC(=O)C(C)(C)C)c2Cl)nc2cc(C(=O)NC3(c4ccc(F)cc4)CC3)c(N3CCC(F)(F)C3)cc21 [Example 37] |
| 4 | 33 |  |  | CN(c1ccc(F)c(Cl)c1)c1cc2c(cc1C(=O)NCC(F)(F)F)nc(Nc1c(Cl)ccc(CNC(=O)C(C)(C)C)c1Cl)n2C [Example 31] |
| 4 | 6 |  |  | Cn1c(Nc2c(Cl)ccc(CNC(=O)C(C)(C)C)c2Cl)nc2cc(C(=O)NC(c3ccccn3)C(F)(F)F)c(N3CCC(F)(F)C3)cc21 (centres unmarked) [Example 38] |
| 4 | 6 |  |  | Cn1c(Nc2c(Cl)ccc(CNC(=O)C(C)(C)C)c2Cl)nc2cc(C(=O)NCc3ccc(F)cc3C(F)(F)F)c(N3CCC(F)(F)C3)cc21 [Example 44] |
| 4 | < 1 |  |  | Cn1c(Nc2c(Cl)ccc(CNC(=O)C(C)(C)C)c2Cl)nc2cc(C(=O)NC3CCN(CC(F)(F)F)CC3)c(N3CCC(C(F)(F)F)CC3)cc21 [Example 59] |
| 3 | 1 |  |  | CN(CCC(F)(F)F)c1cc2c(cc1C(=O)NCC(F)(F)F)nc(Nc1c(Cl)ccc(CNC(=O)C(C)(C)C)c1Cl)n2C [Example 34] |
| 3 | 5 |  |  | Cn1c(Nc2c(Cl)ccc(CNC(=O)C(C)(C)C)c2Cl)nc2cc(C(=O)NCc3ncccc3C(F)(F)F)c(N3CCC(F)(F)C3)cc21 [Example 43] |
| 3 | < 1 |  |  | Cn1c(Nc2c(Cl)ccc(CNC(=O)C(C)(C)C)c2F)nc2cc(C(=O)Nc3ccc(F)c(Cl)c3)c(N3CCC(F)(F)C3)cc21 [Example 51] |
| 3 | 1 |  |  | Cn1c(Nc2c(Cl)ccc(CNC(=O)C(C)(C)C)c2Cl)nc2cc(C(=O)NC3(c4ccc(F)cc4)CC3)c(N3CCC(C(F)(F)F)CC3)cc21 [Example 58] |
| 2 | 6 |  |  | Cn1c(Nc2c(Cl)ccc(CNC(=O)C(C)(C)C)c2Cl)nc2cc(C(=O)NCC(F)(F)F)c(N3CCc4ccc(Cl)cc4C3)cc21 [Example 32] |
| 2 | 7 |  |  | Cn1c(Nc2c(Cl)ccc(CNC(=O)C(C)(C)C)c2Cl)nc2cc(C(=O)N[C@H](c3ccccc3)C(F)(F)F)c(N3CCC(F)(F)C3)cc21 [Example 41] |
| 2 | 8 |  |  | Cn1c(Nc2c(Cl)ccc(CNC(=O)C(C)(C)C)c2Cl)nc2cc(C(=O)NC(Cc3ccccc3)C(F)(F)F)c(N3CCC(F)(F)C3)cc21 (centres unmarked) [Example 48] |
| 2 | 1 |  |  | Cn1c(Nc2c(Cl)ccc(CNC(=O)C(C)(C)C)c2Cl)nc2cc(C(=O)NCC(F)(F)C(F)(F)F)c(N3CCC(C(F)(F)F)CC3)cc21 [Example 53] |
| 1 | 2 |  |  | CC(NC(=O)c1cc2nc(Nc3c(Cl)ccc(CNC(=O)C(C)(C)C)c3Cl)n(C)c2cc1N1CCC(F)(F)C1)C(F)(F)F (centres unmarked) [Example 39] |
| 1 | < 1 |  |  | Cn1c(Nc2c(Cl)ccc(CNC(=O)C(C)(C)C)c2Cl)nc2cc(C(=O)Nc3ccc(Cl)c(F)c3)c(N3CCC(C(F)(F)F)CC3)cc21 [Example 56] |
